Experimental data taken from patent US12109197B2, “Combinations of β-lactam compounds and probenecid and uses thereof” (Iterum Therapeutics International Limited, priority 2018, dated 2024).
Where two headings read alike, the source gives them in different places.

Assay type: in vivo, human
Details: for TAMIC0.5 / TAMIC1.0 / Tmax: median; for Rac: accumulation ratio; for Ae24%: percent of administered dose, adjusted for MW; for CLr: renal clearance; for Ae24: urine over 24 hours postdose
Text: The pharmacokinetics of Compound III-2b wer studies in a randomized, subject-blinded, investigator- and sponsor-open, placebo-controlled, multiple-dose study, run in parallel cohorts. There were 7 cohorts of approximately 10 subjects each (4:1 active:placebo).

[1] = Cohort 2: 1 g BID, fasted, Day 1
[2] = Cohort 2: 1 g BID, fasted, Day 7
[3] = Cohort 3: 1.5 g BID, fed, Day 1
[4] = Cohort 3: 1.5 g BID, fed, Day 7
[5] = Cohort 4: 0.5 g BID, fasted, Day 1
[6] = Cohort 4: 0.5 g BID, fasted, Day 7

`CCC(CC)C(=O)OCOC(=O)C1=C(S[C@H]2CC[S@@+]([O-])C2)S[C@@H]2[C@@H]([C@@H](C)O)C(=O)N12` [Compound III-2b, Sulopenem Etzadroxil] gave an AUCinf (500 mg FED, Day 1) of 3400 ng·h/mL, an AUCinf (500 mg FED, Day 7) of 2990 ng·h/mL and an AUCinf (1000 mg FED, Day 1) of 9430 ng·h/mL. For the same compound, the AUCinf (1000 mg FED, Day 7) was 7800 ng·h/mL, the AUCinf (1000 mg TID FED, Day 1) was 8290 ng·h/mL and the AUCinf (1000 mg TID FED, Day 7) was 6750 ng·h/mL. The AUCinf (1000 mg, Day 1) was 6680 ng·h/mL, the AUCinf (1000 mg, Day 7) was 6020 ng·h/mL and the AUCinf (1500 mg, Day 1) was 12900 ng·h/mL. The AUCinf (1500 mg, Day 7) was 9950 ng·h/mL, the AUCinf (Cohort 1: 1 g BID, fed, Day 1) was 9430 (13) ng · h/mL and the AUClast (Cohort 1: 1 g BID, fed, Day 1) was 9330 (13) ng · h/mL. For the same compound, the Cmax (Cohort 1: 1 g BID, fed, Day 1) was 4420 (24) ng/mL, the t½ (Cohort 1: 1 g BID, fed, Day 1) was 0.823 (13) h and the TAMIC0.5 (Cohort 1: 1 g BID, fed, Day 1) was 4.35 h. The TAMIC1.0 (Cohort 1: 1 g BID, fed, Day 1) was 3.21 h, the Tmax (Cohort 1: 1 g BID, fed, Day 1) was 1.50 h and the AUCinf (Cohort 1: 1 g BID, fed, Day 7) was 7800 (17) ng · h/mL. For the same compound, the AUClast (Cohort 1: 1 g BID, fed, Day 7) was 7670 (17) ng · h/mL, the Cmax (Cohort 1: 1 g BID, fed, Day 7) was 3770 (23) ng/mL and the t½ (Cohort 1: 1 g BID, fed, Day 7) was 0.761 (11) h. For the same compound, the Rac (Cohort 1: 1 g BID, fed, Day 7) was 0.832 (13), the TAMIC0.5 (Cohort 1: 1 g BID, fed, Day 7) was 3.32 h and the TAMIC1.0 (Cohort 1: 1 g BID, fed, Day 7) was 2.64 h. The Tmax (Cohort 1: 1 g BID, fed, Day 7) was 2.00 h, the Ae24% (Cohort 1: 1 g BID, fed, Day 7) was 19.0 (27) % and the CLr (Cohort 1: 1 g BID, fed, Day 7) was 17.4 (19) L/h. For the same compound, the Ae24 (Cohort 1: 1 g BID, fed, Day 7) was 138.7 (27) mg, the AUCinf [1] was 6680 (20) ng · h/mL and the AUClast [1] was 6770 (22) ng · h/mL. The Cmax [1] was 2760 (13) ng/mL, the t½ [1] was 1.37 (33) h and the TAMIC0.5 [1] was 3.69 h. The TAMIC1.0 [1] was 2.91 h, the Tmax [1] was 1.50 h and the AUCinf [2] was 6020 (16) ng · h/mL. For the same compound, the AUClast [2] was 6070 (19) ng · h/mL, the Cmax [2] was 2410 (33) ng/mL and the t½ [2] was 1.08 (24) h. For the same compound, the Rac [2] was 0.910 (11), the TAMIC0.5 [2] was 4.18 h and the TAMIC1.0 [2] was 2.72 h. For the same compound, the Tmax [2] was 1.75 h, the Ae24% [2] was 10.2 (23) % and the CLr [2] was 12.2 (30) L/h. The Ae24 [2] was 74.4 (23) mg, the AUCinf [3] was 12900 (23) ng · h/mL and the AUClast [3] was 12100 (21) ng · h/mL. For the same compound, the Cmax [3] was 3700 (42) ng/mL, the t½ [3] was 1.20 (14) h and the TAMIC0.5 [3] was 6.34 h. The TAMIC1.0 [3] was 4.81 h, the Tmax [3] was 2.50 h and the AUCinf [4] was 9950 (15) ng · h/mL. For the same compound, the AUClast [4] was 9710 (15) ng · h/mL, the Cmax [4] was 2670 (28) ng/mL and the t½ [4] was 0.901 (14) h. The Rac [4] was 0.809 (14), the TAMIC0.5 [4] was 5.96 h and the TAMIC1.0 [4] was 4.44 h. The Tmax [4] was 2.51 h, the AUCinf [5] was 3400 (20) ng · h/mL and the AUClast [5] was 3260 (22) ng · h/mL. For the same compound, the Cmax [5] was 1470 (34) ng/mL, the t½ [5] was 0.862 (19) h and the TAMIC0.5 [5] was 2.66 h. The TAMIC1.0 [5] was 1.38 h, the Tmax [5] was 1.03 h and the AUCinf [6] was 2990 (23) ng · h/mL. For the same compound, the AUClast [6] was 2730 (27) ng · h/mL, the Cmax [6] was 1310 (22) ng/mL and the t½ [6] was 0.797 (16) h.
